Test system: dermal papilla cells
Experiment: Measurement of viability of dermal papilla cells (MTT); promotion of growth of dermal papilla cells
Assay type: cell-based, human
Details: 24 hours culture, MTT absorbance at 570 nm, Control = 100
Method: For cell culture, Dulbecco's Modified Eagle Medium (DMEM), fetal bovine serum (FBS), 0.25% trypsin-1 mM EDTA, and penicillin-streptomycin were used, and dermal papilla cells were cultured at 37° C. in a humidified 5% CO2. The medium was replaced twice a week, and the cultured dermal papilla cells were washed with PBS within 6-7 days. Next, the attached cells were separated by 0.05% trypsin-0.02% EDTA, centrifuged, and then subcultured for experiments. Specifically, 200 μl of dermal papilla cells were dispensed into each well of a 96-well plate at a density of 1×10^4 cells/well, and cultured under the conditions of 37° C. and 5% CO2 for 18 hours so as to be attached to each well. After 18 hours, the medium was removed, and 200 μl of samples was added to each well having the cells attached thereto, followed by culture for 24 hours. After the medium was removed, 100 μl of a solution of 3-(4,5-dimethylthiazol)-2,5-diphenyltetrazoliumbromide(MTT), prepared by dissolving MTT in PBS at a concentration of 500 μg/ml, was added to the cultured cells, followed by culture for 4 hours under the same conditions as described above. The formed formazan crystal was dissolved in DMSO, and the absorbance at 570 nm was measured using an ELISA reader. The measured OD values ranging from 0.00 to 3.50 were used for the experimental results. The sample for treatment of the cells was used at concentrations of 0.5, 5 and 50 μM.

Molecule	Effect on the growth of dermal papilla cells (0.5 μM sample)	Effect on the growth of dermal papilla cells (5 μM sample)	Effect on the growth of dermal papilla cells (50 μM sample)
C=CCCC(=O)SCCNC(=O)CCNC(=O)[C@H](O)C(C)(C)CO [S4, 4-pentenoyl-D-pantetheine]	116.88	122.89	111.97
CCC(C)C(=O)SCCNC(=O)CCNC(=O)[C@H](O)C(C)(C)CO (stereo partly drawn) [S1, 2-methylbutyryl-D-pantetheine]	113.31	129.65	139.19
isobutyl formate-D-pantetheine [S6]	130.57	112.94	135.95
Nc1cc(N2CCCCC2)nc(N)[n+]1[O-] [minoxidil, reference compound]	146.66	146.52	140.29
CC(C)CC(=O)SCCNC(=O)CCNC(=O)[C@H](O)C(C)(C)CO [S2, 3-methylbutyryl-D-pantetheine]	121.04	114.65	121.28
C=CCCCCCCCCC(=O)SCCNC(=O)CCNC(=O)[C@H](O)C(C)(C)CO [S5, 10-undecenoyl-D-pantetheine]	111.24	93.01	101.62
cinnamoyl-D-pantetheine [S3]	119.77	122.38	133.33
CC(C)(CO)[C@@H](O)C(=O)NCCC(=O)NCCSC(=O)c1ccc(O)cc1O [S7, 2,4-dihydroxybenzoyl-D-pantetheine]	95.73	97.32	93.12

— patent US10376453B1, “Composition for promoting hair growth containing novel pantetheine derivative” (KOREA INSTITUTE OF OCEAN SCIENCE AND TECHNOLOGY, priority 2016, dated 2019)
